Bounds are passed on as bounds.

For this assay, the target named is T1, c-Met kinase (recombinant c-Met) (Homo sapiens, UniProt P08581).
T1 construct: 0.27 nM recombinant c-Met
T1 sequence (P08581 25-1390): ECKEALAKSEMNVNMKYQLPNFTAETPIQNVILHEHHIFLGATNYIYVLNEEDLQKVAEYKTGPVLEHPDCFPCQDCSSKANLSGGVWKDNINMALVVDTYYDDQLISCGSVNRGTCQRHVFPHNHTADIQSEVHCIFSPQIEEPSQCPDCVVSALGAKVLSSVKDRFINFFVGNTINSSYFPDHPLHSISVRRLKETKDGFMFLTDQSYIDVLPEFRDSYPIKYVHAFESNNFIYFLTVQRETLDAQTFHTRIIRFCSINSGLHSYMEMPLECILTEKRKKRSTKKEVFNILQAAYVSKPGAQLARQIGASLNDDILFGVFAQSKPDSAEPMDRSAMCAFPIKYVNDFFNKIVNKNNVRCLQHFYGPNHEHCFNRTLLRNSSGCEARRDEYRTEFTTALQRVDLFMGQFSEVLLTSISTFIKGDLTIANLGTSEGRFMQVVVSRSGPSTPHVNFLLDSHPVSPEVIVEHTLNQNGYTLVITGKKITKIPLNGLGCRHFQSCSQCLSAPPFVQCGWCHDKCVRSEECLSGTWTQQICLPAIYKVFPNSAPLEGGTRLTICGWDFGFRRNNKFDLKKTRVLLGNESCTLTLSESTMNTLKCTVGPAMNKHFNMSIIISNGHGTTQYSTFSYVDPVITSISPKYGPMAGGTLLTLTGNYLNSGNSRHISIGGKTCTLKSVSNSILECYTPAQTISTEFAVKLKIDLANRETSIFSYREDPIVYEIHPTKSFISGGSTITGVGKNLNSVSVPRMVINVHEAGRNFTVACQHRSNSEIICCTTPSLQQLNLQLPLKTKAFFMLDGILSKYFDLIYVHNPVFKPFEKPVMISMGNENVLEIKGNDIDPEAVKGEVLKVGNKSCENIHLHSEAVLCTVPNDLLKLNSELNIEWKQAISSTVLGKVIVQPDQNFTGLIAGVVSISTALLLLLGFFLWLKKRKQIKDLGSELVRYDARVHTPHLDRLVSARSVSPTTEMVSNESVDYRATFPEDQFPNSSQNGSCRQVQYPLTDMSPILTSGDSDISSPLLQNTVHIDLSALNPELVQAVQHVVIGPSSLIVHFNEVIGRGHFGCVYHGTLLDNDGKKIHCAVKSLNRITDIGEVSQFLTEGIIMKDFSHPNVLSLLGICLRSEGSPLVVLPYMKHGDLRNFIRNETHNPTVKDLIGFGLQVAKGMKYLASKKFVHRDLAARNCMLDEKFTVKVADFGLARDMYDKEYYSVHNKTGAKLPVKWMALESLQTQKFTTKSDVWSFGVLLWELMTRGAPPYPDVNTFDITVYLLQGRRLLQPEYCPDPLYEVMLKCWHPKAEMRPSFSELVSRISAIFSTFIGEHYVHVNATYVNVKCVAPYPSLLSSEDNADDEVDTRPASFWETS
The assay can be described thus: In vitro kinase assay I (homogeneous time-resolved fluorescence tyrosine kinase assay). Format: biochemical. In short, it runs like this: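 Biotinylated peptide (0.5 μM) phosphorylated by 0.2 nM recombinant c-Met with 50 μM MgATP, 60 min at room temperature, pH 7.4, 5% DMSO. EDTA stop; HTRF read with Eu-anti-phosphotyrosine antibody and streptavidin-APC. IC50 from 4-parameter logistic fit.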
With `Cc1noc(C)c1-c1cnc(-c2cccc(Cc3nn(-c4cnn(C)c4)ccc3=O)c2)nc1` [Example 424, 3-{3-[5-(3,5-dimethylisoxa-zol-4-yl)pyrimidin-2-yl]benzyl}-1-(1-methyl-1H-pyrazol-4-yl)pyridazin-4(1H)-one], the IC50 was in the range of 100 to 1000 nM.

For `Cn1cc(-n2ccc(=O)c(Cc3cccc(-c4ncc(OCC(F)(F)CN5CCOCC5)cn4)c3)n2)cn1` [Example 259, 3-(3-{5-[2,2-Difluoro-3-(morpholin-4-yl)propoxy]pyrimidin-2-yl}benzyl)-1-(1-methyl-1H-pyrazol-4-yl)pyridazin-4(1H)-one], the IC50 is less than 100 nM.

Take `CCCOC(=O)Nc1cccc(Cc2nn(-c3ccc(Br)cc3)ccc2=O)c1` [Example 14, propyl (3-{[1-(4-bromophenyl)-4-oxo-1,4-dihydropyridazin-3-yl]methyl}phenyl)carbamate]: the IC50 is less than 100 nM.

With `Cn1cc(-n2ccc(=O)c(Cc3ccc4ncc(OCCN5CCOCC5)cc4c3)n2)cn1` [Example 60, 1-(1-methyl-1H-pyrazol-4-yl)-3-{[3-(2-morpholin-4-ylethoxy)quinolin-6-yl]methyl}pyridazin-4(1H)-one], the IC50 lay in the range of 100 to 1000 nM.

`CCOCCn1cnc(-c2cccc(Cc3nn(-c4cnn(C)c4)ccc3=O)c2)n1` [Example 716, 3-{3-[1-(2-ethoxyethyl)-1H-1,2,4-triazol-3-yl]benzyl}-1-(1-methyl-1H-pyrazol-4-yl)pyridazin 4(1H)-one]: the IC50 was in the range of 100 to 1000 nM.

As for `C=C(C)c1cnc(-c2cccc(Cc3nn(-c4cnn(C)c4)ccc3=O)c2)nc1` [Example 399, 1-(1-methyl-1H-pyrazol-4-yl)-3-{3-[5-(prop-1-en-2-yl)pyrimidin-2-yl]benzyl}pyridazin-4(1H)-one], the concentration for half-maximal inhibition (IC50) was less than 100 nM.

Take `O=C(Nc1cccc(Cc2nn(-c3cc(F)cc(F)c3)ccc2=O)c1)OCCCN1CCS(=O)(=O)CC1` [Example 522, 3-(1,1-dioxidothio-morpholin-4-yl)propyl (3-{[1-(3,5-difluorophenyl)-4-oxo-1,4-dihydropyridazin-3-yl]methyl}phenyl)carbamate]: the IC50 is less than 100 nM.

Turning to `CC(=O)Nc1cccc(Cc2nn(-c3ccccc3)ccc2=O)c1` [Example 631, N-{3-[(4-Oxo-1-phenyl-1,4-dihydropyridazin-3-yl)methyl]phenyl}acetamide], the IC50 lay in the range of 1000 to 3000 nM.

In the case of `CC(C)c1nc(COc2cnc(-c3cccc(Cc4nn(-c5cnn(C)c5)ccc4=O)c3)nc2)no1` [Example 283, 3-[3-(5-{[5-(1-methylethyl)-1,2,4-oxadiazol-3-yl]methoxy}pyrimidin-2-yl)benzyl]-1-(1-methyl-1H-pyrazol-4-yl)pyridazin-4(1H)-one], the IC50 was less than 100 nM.

In the case of `Cn1cc(-n2ccc(=O)c(Cc3cccc(NC(=O)OCC(N)C(F)(F)F)c3)n2)cn1` (racemic) [Example 619, rac-2-amino-3,3,3-trifluoropropyl (3-{[1-(1-methyl-1H-pyrazol-4-yl)-4-oxo-1,4-dihydropyridazin-3-yl]methyl}phenyl)carbamate], the IC50 was less than 100 nM.

For `Cc1noc(-c2cccc(Cc3nn(-c4cnn(C)c4)ccc3=O)c2)n1` [Example 41, 3-[3-(3-methyl-1,2,4-oxadiazol-5-yl)benzyl]-1-(1-methyl-1H-pyrazol-4-yl)pyridazin-4(1H)-one], the IC50 lay within 1000 to 3000 nM.

As to `Cn1cc(-n2ccc(=O)c(Cc3cccc(-c4ncc(CN5CCCC5)cn4)c3)n2)cn1` [Example 429, 1-(1-methyl-1H-pyrazol-4-yl)-3-{3-[5-(pyrrolidin-1-ylmethyl)pyrimidin-2-yl]benzyl}pyridazin-4(1H)-one], the IC50 was less than 100 nM.

In the case of `O=C(Nc1cccc(Cc2nn(-c3cnn(CC(F)(F)F)c3)ccc2=O)c1)OCCN1CCOCC1` [Example 116, 2-morpholin-4-ylethyl [3-({4-oxo-1-[1-(2,2,2-trifluoroethyl)-1H-pyrazol-4-yl]-1,4-dihydropyridazin-3-yl}methyl)phenyl]carbamate], the 50% inhibitory concentration (IC50) is less than 100 nM.

As to `CN(C)CCOC(=O)Nc1cccc(Cc2nn(-c3cc(F)c(F)c(F)c3)ccc2=O)c1` [Example 546, 2-(dimethylamino)ethyl (3-{[4-oxo-1-(3,4,5-trifluorophenyl)-1,4-dihydropyridazin-3-yl]methyl}phenyl)carbamate], the IC50 is less than 100 nM.

With `CCOc1cnc(-c2cccc(Cc3nn(-c4cnn(CC)c4)ccc3=O)c2)nc1` [Example 150, 3-[3-(5-ethoxypyrimidin-2-yl)benzyl]-1-(1-ethyl-1H-pyrazol-4-yl)pyridazin-4(1H)-one], the IC50 was less than 100 nM.

On to `Cn1cc(-n2ccc(=O)c(Cc3cccc(-c4ncc(OCCn5cccn5)cn4)c3)n2)cn1` [Example 265, 1-(1-methyl-1H-pyrazol-4-yl)-3-(3-{5-[2-(1H-pyrazol-1-yl)ethoxy]pyrimidin-2-yl}benzyl)pyridazin-4(1H)-one], for which the IC50 is less than 100 nM.

As for `CC(c1cccc(-c2ncn(C)n2)c1)c1nn(-c2cnn(C)c2)ccc1=O` (single isomer, unassigned) [Example 683, 1-(1-methyl-1H-pyrazol-4-yl)-3-{(1R or S)-1-[3-(1-methyl-1H-1,2,4-triazol-3-yl)phenyl]ethyl} pyridazin-4(1H)-one], the IC50 was less than 100 nM.

`Cn1cc(-n2ccc(=O)c(Cc3cccc(-c4ncc(Br)cn4)c3)n2)cn1` [Example 465, 3-[3-(5-Bromopyrimidin-2-yl)benzyl]-1-(1-methyl-1H-pyrazol-4-yl)pyridazin-4(1H)-one]: the IC50 was less than 100 nM.

As to `CCCNC(=O)Nc1cccc(Cc2nn(-c3cnn(C)c3)ccc2=O)c1` [Example 489, 1-(3-{[1-(1-methyl-1H-pyrazol-4-yl)-4-oxo-1,4-dihydropyridazin-3-yl]methyl}phenyl)-3-propylurea], the IC50 is less than 100 nM.

Regarding `CCOc1cnc(-c2cccc(Cc3nn(-c4cnn(C)c4)ccc3=O)c2F)nc1` [Example 121, 3-[3-(5-ethoxypyrimidin-2-yl)-2-fluorobenzyl]-1-(1-methyl-1H-pyrazol-4-yl)pyridazin-4(1H)-one], the IC50 is 100 to 1000 nM.

As for `O=C(Nc1cccc(Cc2nn(-c3cc(F)c(F)c(F)c3)ccc2=O)c1)OCCCN1CCCC1` [Example 554, 3-pyrrolidin-1-ylpropyl (3-{[4-oxo-1-(3,4,5-trifluorophenyl)-1,4-dihydropyridazin-3-yl]methyl}phenyl)carbamate], the IC50 is less than 100 nM.

Consider `COCCNC(=O)Nc1cccc(Cc2nn(-c3cnn(C)c3)ccc2=O)c1` [Example 493, 1-(2-methoxyethyl)-3-(3-{[1-(1-methyl-1H-pyrazol-4-yl)-4-oxo-1,4-dihydropyridazin-3-yl]methyl}phenyl)urea], for which the IC50 was less than 100 nM.

Turning to `O=c1ccn(-c2cccnc2)nc1Cc1cccc(-c2ncccn2)c1` [Example 29, 1-pyridin-3-yl-3-(3-pyrimidin-2-ylbenzyl)pyridazin-4(1H)-one], the half-maximal inhibitory concentration (IC50) was in the range of 100 to 1000 nM.

`Cn1cc(-n2ccc(=O)c(Cc3cccc(-c4ncc(CO)s4)c3)n2)cn1` [Example 676, 3-{3-[5-(hydroxymethyl)-1,3-thiazol-2-yl]benzyl}-1-(1-methyl-1H-pyrazol-4-yl)pyridazin-4(1H)-one]: the IC50 was 100 to 1000 nM.

Regarding `N#Cc1cccc(-n2ccc(=O)c(Cc3cccc(NC(=O)OCC4CNC4)c3)n2)c1` [Example 627, azetidin-3-ylmethyl (3-{[1-(3-cyanophenyl)-4-oxo-1,4-dihydropyridazin-3-yl]methyl}phenyl)carbamate], the IC50 was less than 100 nM.

Turning to `COC(C)(C)COc1cnc(-c2cccc(C(C)c3nn(-c4ccc(F)c(F)c4)ccc3=O)c2)nc1` (single isomer, unassigned) [Example 251, 1-(3,4-difluorophenyl)-3-[(1S or R)-1-{3-[5-(2-methoxy-2-methylpropoxy)pyrimidin-2-yl]phenyl}ethyl]pyridazin-4(1H)-one], the IC50 was less than 100 nM.

Consider `Cn1cc(-n2ccc(=O)c(Cc3cccc(NC(=O)OCCOC4CCCCC4)c3)n2)cn1` [Example 577, 2-(cyclohexyloxy)ethyl (3-{[1-(1-methyl-1H-pyrazol-4-yl)-4-oxo-1,4-dihydropyridazin-3-yl]methyl}phenyl)carbamate], for which the IC50 was less than 100 nM.

With `Cn1cc(-n2ccc(=O)c(Cc3cccc(NC(=O)OCC4CCOCC4)c3)n2)cn1` [Example 541, tetrahydro-2H-pyran-4-ylmethyl (3-{[1-(1-methyl-1H-pyrazol-4-yl)-4-oxo-1,4-dihydropyridazin-3-yl]methyl}phenyl)carbamate], the IC50 is less than 100 nM.

Regarding `CCOc1cnc(-c2cccc(Oc3nn(-c4cnn(C)c4)ccc3=O)c2)nc1` [Example 755, 3-[3-(5-Ethoxypyrimidin-2-yl)phenoxy]-1-(1-methyl-1H-pyrazol-4-yl)pyridazin-4(1H)-one], the IC50 fell in the range of 1000 to 3000 nM.

Take `COC(C)(C)COc1cnc(-c2cccc(C(C)c3nn(-c4ccc(F)c(F)c4)ccc3=O)c2)nc1` (single isomer, unassigned) [Example 252, 1-(3,4-difluorophenyl)-3-[(1R or S)-1-{3-[5-(2-methoxy-2-methylpropoxy)pyrimidin-2-yl]phenyl}ethyl]pyridazin-4(1H)-one]: the IC50 is less than 100 nM.

As to `COCCOc1cnc(-c2cccc(Cc3nn(-c4cnn(C)c4)ccc3=O)c2)nc1` [Example 4, 3-{3-[5-(2-Methoxyethoxy)pyrimidin-2-yl]benzyl}-1-(1-methyl-1H-pyrazol-4-yl)pyridazin-4(1H)-one], the IC50 is less than 100 nM.

Regarding `CC(C)COC(=O)Nc1cccc(Cc2nn(-c3cccc(Br)c3)ccc2=O)c1` [Example 69, 2-methylpropyl (3-{[1-(3-bromophenyl)-4-oxo-1,4-dihydropyridazin-3-yl]methyl}phenyl)carbamate], the IC50 is less than 100 nM.

`CC1CC1COC(=O)Nc1cccc(Cc2nn(-c3cnn(C)c3)ccc2=O)c1` (mixture of isomers) [Example 574, (2-methylcyclopropyl)methyl (3-{[1-(1-methyl-1H-pyrazol-4-yl)-4-oxo-1,4-dihydropyridazin-3-yl]methyl}phenyl)carbamate]: the IC50 was less than 100 nM.

(Values after patent US20120264735A1 (priority 2009, published 2012).)
